Earlier results, collected in patent publication US20080213414A1, “Compositions containing phaseolus vulgaris extract and alpinia officinarum extract for the prevention and treatment of obesity and type II diabetes” (priority 2005, published 2008).

Key:
[1] = without gastroprotection
[2] = biological target: T1, pancreatic lipase (Homo sapiens, UniProt P16233)
T1 sequence (P16233 17-465): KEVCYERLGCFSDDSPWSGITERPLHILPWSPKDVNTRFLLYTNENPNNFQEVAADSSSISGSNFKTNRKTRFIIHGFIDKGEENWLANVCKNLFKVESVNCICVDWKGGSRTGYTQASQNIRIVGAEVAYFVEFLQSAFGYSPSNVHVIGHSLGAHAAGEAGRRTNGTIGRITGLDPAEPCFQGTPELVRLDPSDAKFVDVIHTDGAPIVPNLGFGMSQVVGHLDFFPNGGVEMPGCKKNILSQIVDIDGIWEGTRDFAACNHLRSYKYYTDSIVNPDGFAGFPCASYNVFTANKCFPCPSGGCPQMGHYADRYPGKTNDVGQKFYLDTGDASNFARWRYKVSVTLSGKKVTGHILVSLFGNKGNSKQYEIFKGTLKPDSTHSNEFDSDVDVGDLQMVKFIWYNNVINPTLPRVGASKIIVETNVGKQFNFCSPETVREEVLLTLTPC

SMILES: COc1c(-c2ccccc2)oc2cc(O)cc(O)c2c1=O [3-methylethergalangin]
- stability to the gastric juices [1]: not broken down by the gastric juices
- IC50, inhibition of pancreatic lipase [2]: around 1 mg/ml
